Results published in US20150105252A1, “SUBSTITUTED PYRAZOLES AS HERBICIDES” (E I DU PONT DE NEMOURS AND COMPANY, priority 2013, published 2015).

How the values were obtained:
pigweed, palmer = experiment: Test F preemergence; format: in vivo, Amaranthus palmeri
Excerpt: (§1) Seeds of plant species selected from corn (Zea mays), soybean (Glycine max), velvetleaf (Abutilon theophrasti), lambsquarters (Chenopodium album), wild poinsettia (Euphorbia heterophylla), pigweed, palmer (palmer pigweed, Amaranthus palmeri), common waterhemp (Amaranthus rudis), surinam grass (Brachiaria decumbens), large crabgrass (Digitaria sanguinalis), crabgrass, Brazil (Brazilian crabgrass, Digitaria horizontalis), fall panicum (Panicum dichotomiflorum), giant foxtail (Setaria faberii), green foxtail (Setaria viridis), goosegrass (Eleusine indica), johnsongrass (Sorghum halepense), common ragweed (Ambrosia elation), barnyardgrass (Echinochloa crus-galli), southern sandbur (Cenchrus echinatus), arrowleaf sida (Sida rhombifolia), Italian ryegrass (Lolium multiflorum), dayflower, VA (Virginia (VA) dayflower, Commelina virginica), field bindweed (Convolvulus arvensis), cocklebur (common cocklebur, Xanthium strumarium), morningglory (Ipomoea coccinea), nightshade (eastern black nightshade, Solanum ptycanthum), kochia (Kochia scoparia), yellow nutsedge (Cyperus esculentus), and hairy beggarticks (Bidens pilosa), were planted into a silt loam soil and treated preemergence with test chemicals formulated in a non-phytotoxic solvent mixture which included a surfactant.
(§2) At the same time, plants from these crop and weed species and also horseweed (Canada horseweed, Conyza canadensis), smartweed (ladysthumb smartweed, Polygonum persicaria), waterhemp_RES1, (ALS & Triazine resistant common waterhemp, Amaranthus rudis), and waterhemp_RES2, (ALS & HPPD resistant common waterhemp, Amaranthus rudis) were treated with postemergence applications of test chemicals formulated in the same manner. Plants ranged in height from 2 to 18 cm for postemergence treatments (1- to 4-leaf stage). Treated plants and controls were maintained in a greenhouse for 14 to 21 days, after which time all species were compared to controls and visually evaluated. Plant response ratings, summarized in Table F, are based on a scale of 0 to 100 where 0 is no effect and 100 is complete control. A dash (-) response means no test result.

field bindweed = experiment: Test F preemergence; format: in vivo, Convolvulus arvensis
Excerpt: as §1, §2

nightshade = experiment: Test F preemergence; format: in vivo, Solanum ptycanthum
Excerpt: as §1, §2

green foxtail = experiment: Test F preemergence; format: in vivo, Setaria viridis
Excerpt: as §1, §2

johnsongrass = experiment: Test F preemergence; format: in vivo, Sorghum halepense
Excerpt: as §1, §2

goosegrass = experiment: Test F preemergence; format: in vivo, Eleusine indica
Excerpt: as §1, §2

galium = experiment: Test A postemergence; format: in vivo, Galium aparine
In short: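 Injury readout: eye-scored versus untreated controls, 0 to 100. Exposure period: ~10 days, greenhouse. Application: soil-directed spray over sown seed (pre) or spray on seedlings 2–10 cm tall with one or two leaves (post), compound carried in non-phytotoxic solvent including surfactant.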

kochia = experiment: Test C preemergence; format: in vivo, Kochia scoparia; conditions: for Plant response rating (scale of 0 to 100), Kochia: Preemergence, 250 g ai/ha; for Kochia plant response rating / Plant response rating, Kochia: preemergence; for Plant response rating, Kochia: 62 g ai/ha, scale 0 to 100, 0 = no effect, 100 = complete control
Excerpt: (§3) Seeds of plant species selected from blackgrass (Alopecurus myosuroides), ryegrass, Italian (Italian ryegrass, Lolium multiflorum), wheat (winter wheat, Triticum aestivum), galium (catchweed bedstraw, Galium aparine), corn (Zea mays), crabgrass, large (large crabgrass, Digitaria sanguinalis), foxtail, giant (giant foxtail, Setaria faberii), johnsongrass (Sorghum halepense), lambsquarters (Chenopodium album), morningglory (Ipomoea coccinea), nutsedge, yellow (yellow nutsedge, Cyperus esculentus), pigweed (redroot pigweed, Amaranthus retroflexus), ragweed (common ragweed, Ambrosia elation), soybean (Glycine max), barnyardgrass (Echinochloa crus-galli), oilseed rape (Brassica napus), waterhemp (common waterhemp, Amaranthus rudis), oat, wild (wild oat, Avena fatua), kochia (Kochia scoparia), Surinam grass (Brachiaria decumbens), foxtail, green (green foxtail, Setaria viridis), goosegrass (Eleusine indica), bromegrass, downy (downy bromegrass, Bromus tectorum), nightshade (eastern black nightshade, Solanum ptycanthum), cocklebur (common cocklebur, Xanthium strumarium), cupgrass, woolly (woolly cupgrass, Eriochloa villosa), bermudagrass (Cynodon dactylon), sunflower, (common oilseed sunflower, Helianthus annuus), Russian thistle (Salsola kali), and velvetleaf (Abutilon theophrasti) were planted into a blend of loam soil and sand and treated preemergence with test chemicals formulated in a non-phytotoxic solvent mixture which included a surfactant.
(§4) At the same time, plants selected from these crop and weed species and also chickweed (common chickweed, Stellaria media), canarygrass (littleseed canarygrass, Phalaris minor), and deadnettle (henbit deadnettle, Lamium amplexicaule), were planted in pots containing Redi-Earth® planting medium (Scotts Company, 14111 Scottslawn Road, Marysville, Ohio 43041) comprising spaghnum peat moss, vermiculite, wetting agent and starter nutrients and treated with postemergence applications of test chemicals formulated in the same manner. Plants ranged in height from 2 to 18 cm (1- to 4-leaf stage) for postemergence treatments. Treated plants and controls were maintained in a greenhouse for 13 to 15 days, after which time all species were compared to controls and visually evaluated. Plant response ratings, summarized in Table C, are based on a scale of 0 to 100 where 0 is no effect and 100 is complete control. A dash (-) response means no test result.

deadnettle = experiment: Test C postemergence; format: in vivo, Lamium amplexicaule; conditions: for Deadnettle plant response rating: scale 0 to 100
Excerpt: as §3, §4

[1] = Preemergence, 31 g ai/ha, scale 0 to 100
[2] = Preemergence, 62 g ai/ha, scale 0 to 100
[3] = Preemergence, 125 g ai/ha, scale 0 to 100
[4] = preemergence, 8 g ai/ha, scale 0 to 100, 100 is complete control
[5] = preemergence, 16 g ai/ha, scale 0 to 100, 100 is complete control
[6] = Postemergence, 500 g ai/ha, 0 to 100 scale (0 no effect, 100 complete control)
[7] = postemergence, 125 g ai/ha, about 10 days, visual rating on 0 to 100 scale (0 no effect, 100 complete control)
[8] = Preemergence, 250 g ai/ha, scale 0 to 100
[9] = Preemergence, 16 g ai/ha, scale 0 to 100
[10] = 31 g ai/ha, scale 0 to 100 (0 no effect, 100 complete control), 13 to 15 days
[11] = 125 g ai/ha, scale 0 to 100, 0 is no effect, 100 is complete control
[12] = postemergence, 250 g ai/ha, scale 0 to 100 (0 no effect, 100 complete control)
[13] = postemergence, 125 g ai/ha, scale 0 to 100, 0 no effect, 100 complete control

SMILES: CCc1cc(-c2ccc(C(F)(F)F)cc2)nn1Cc1ccnc(C(F)(F)F)c1 [Compound 110]
- Plant response rating, Pigweed, Palmer (pigweed, palmer; [1]): 95
- Plant response rating, Pigweed, Palmer (pigweed, palmer; [2]): 100
- Plant response rating, Pigweed, Palmer (pigweed, palmer; [3]): 100
- Plant response rating, Pigweed, Palmer (pigweed, palmer; [4]): 70
- Plant response rating, Pigweed, Palmer (pigweed, palmer; [5]): 90
- Plant response rating, Field Bindweed (field bindweed; [1]): 30
- Plant response rating, Field Bindweed (field bindweed; [2]): 50
- Plant response rating, Field Bindweed (field bindweed; [3]): 90
- Plant response rating, Field Bindweed (field bindweed; [4]): 0
- Plant response rating, Field Bindweed (field bindweed; [5]): 10
- Plant response rating, Nightshade (nightshade; [1]): 80
- Plant response rating, Nightshade (nightshade; [2]): 85
- Plant response rating, Nightshade (nightshade; [3]): 95
- Plant response rating, Nightshade (nightshade; [4]): 50
- Plant response rating, Nightshade (nightshade; [5]): 65
- Plant response rating, Green Foxtail (green foxtail; [1]): 75
- Plant response rating, Green Foxtail (green foxtail; [2]): 100
- Plant response rating, Green Foxtail (green foxtail; [3]): 100
- Plant response rating, Green Foxtail (green foxtail; [4]): 25
- Plant response rating, Green Foxtail (green foxtail; [5]): 30
- Plant response rating, Johnsongrass (johnsongrass; [1]): 15
- Plant response rating, Johnsongrass (johnsongrass; [2]): 25
- Plant response rating, Johnsongrass (johnsongrass; [3]): 80
- Plant response rating, Johnsongrass (johnsongrass; [4]): 0
- Plant response rating, Johnsongrass (johnsongrass; [5]): 0
- Plant response rating, Goosegrass (goosegrass; [1]): 35
- Plant response rating, Goosegrass (goosegrass; [2]): 60
- Plant response rating, Goosegrass (goosegrass; [3]): 95
- Plant response rating, Goosegrass (goosegrass; [4]): 0
- Plant response rating, Goosegrass (goosegrass; [5]): 15

SMILES: CCc1cc(C(=O)NOC(C)C)nn1Cc1ccnc(OC(F)F)c1 [Compound 126]
- Galium plant response rating (galium; [6]): 90
- Galium plant response rating (galium; [7]): 90

SMILES: CCc1cc(C(=O)NCC(F)(F)F)nn1Cc1ccnc(Br)c1 [Compound 224]
- Plant response rating, Pigweed, Palmer (pigweed, palmer; [2]): 100
- Plant response rating, Pigweed, Palmer (pigweed, palmer; [3]): 100
- Plant response rating, Pigweed, Palmer (pigweed, palmer; [8]): 100
- Plant response rating, Field Bindweed (field bindweed; [2]): 65
- Plant response rating, Field Bindweed (field bindweed; [3]): 90
- Plant response rating, Field Bindweed (field bindweed; [8]): 90
- Plant response rating, Nightshade (nightshade; [3]): 0
- Plant response rating, Nightshade (nightshade; [8]): 95
- Plant response rating, Green Foxtail (green foxtail; [2]): 35
- Plant response rating, Green Foxtail (green foxtail; [3]): 70
- Plant response rating, Green Foxtail (green foxtail; [8]): 95
- Plant response rating, Johnsongrass (johnsongrass; [2]): 0
- Plant response rating, Johnsongrass (johnsongrass; [3]): 35
- Plant response rating, Johnsongrass (johnsongrass; [8]): 75
- Plant response rating, Goosegrass (goosegrass; [2]): 35
- Plant response rating, Goosegrass (goosegrass; [3]): 60
- Plant response rating, Goosegrass (goosegrass; [8]): 95

SMILES: CCCc1cc(C(=O)NC2CC2)nn1Cc1ccnc(OC(F)F)c1 [Compound 205]
- Galium plant response rating (galium; Postemergence, 125 g ai/ha, 0 to 100 scale, 0 no effect, 100 complete control): 90
- Galium plant response rating (galium; [6]): 90

SMILES: CCCc1cc(C(=O)NCC(F)(F)F)nn1Cc1ccnc(OC(F)F)c1 [Compound 127]
- Galium plant response rating (galium; [6]): 90
- Galium plant response rating (galium; [7]): 90

SMILES: CCOc1cc(C(=O)NCC(F)(F)F)nn1Cc1ccnc(OC(F)F)c1 [Compound 128]
- Galium plant response rating (galium; [6]): 100
- Galium plant response rating (galium; [7]): 90

SMILES: CCCc1cc(C(=O)NC(C)C)nn1Cc1cc(C(F)(F)F)nn1C [Compound 201]
- Plant response rating, Pigweed, Palmer (pigweed, palmer; [2]): 40
- Plant response rating, Pigweed, Palmer (pigweed, palmer; [3]): 65
- Plant response rating, Pigweed, Palmer (pigweed, palmer; [8]): 90
- Plant response rating, Pigweed, Palmer (pigweed, palmer; [5]): 0
- Plant response rating, Field Bindweed (field bindweed; [9]): 15
- Plant response rating, Field Bindweed (field bindweed; [2]): 20
- Plant response rating, Field Bindweed (field bindweed; [3]): 75
- Plant response rating, Field Bindweed (field bindweed; [8]): 100
- Plant response rating, Field Bindweed (field bindweed; [5]): 0
- Plant response rating, Nightshade (nightshade; [9]): 10
- Plant response rating, Nightshade (nightshade; [2]): 80
- Plant response rating, Nightshade (nightshade; [3]): 95
- Plant response rating, Nightshade (nightshade; [8]): 98
- Plant response rating, Nightshade (nightshade; [5]): 0
- Plant response rating, Green Foxtail (green foxtail; [2]): 40
- Plant response rating, Green Foxtail (green foxtail; [3]): 75
- Plant response rating, Green Foxtail (green foxtail; [8]): 80
- Plant response rating, Green Foxtail (green foxtail; [5]): 0
- Plant response rating, Johnsongrass (johnsongrass; [2]): 25
- Plant response rating, Johnsongrass (johnsongrass; [3]): 80
- Plant response rating, Johnsongrass (johnsongrass; [8]): 95
- Plant response rating, Johnsongrass (johnsongrass; [5]): 0
- Plant response rating, Goosegrass (goosegrass; [2]): 50
- Plant response rating, Goosegrass (goosegrass; [3]): 95
- Plant response rating, Goosegrass (goosegrass; [8]): 95
- Plant response rating, Goosegrass (goosegrass; [5]): 0

SMILES: CCc1cc(C(=O)NOC(C)C)nn1Cc1cccc(OC(F)(F)F)c1 [Compound 70]
- Plant response rating (scale of 0 to 100), Kochia (kochia): 98
- Kochia plant response rating (kochia; [10]): 40
- Plant response rating, Kochia (kochia; 13 to 15 days): 65
- Kochia plant response rating (kochia; [11]): 98
- Deadnettle plant response rating (deadnettle; Postemergence, 31 g ai/ha): 25
- Plant response rating, Deadnettle (deadnettle; [12]): 90
- Plant response rating, Deadnettle (deadnettle; postemergence, 62 g ai/ha, scale 0 to 100, 0 no effect, 100 complete control): 70
- Plant response rating, Deadnettle (deadnettle; [13]): 70

SMILES: CCCNC(=O)c1cc(OCC)n(Cc2ccnc(OC(F)F)c2)n1 [Compound 136]
- Galium plant response rating (galium; [6]): 100
- Galium plant response rating (galium; [7]): 90

SMILES: CCONC(=O)c1cc(CC)n(Cc2cccc(OC(F)(F)F)c2)n1 [Compound 72]
- Plant response rating (scale of 0 to 100), Kochia (kochia): 80
- Kochia plant response rating (kochia; [10]): 5
- Plant response rating, Kochia (kochia; 13 to 15 days): 45
- Kochia plant response rating (kochia; [11]): 50
- Deadnettle plant response rating (deadnettle; Postemergence, 31 g ai/ha): 40
- Deadnettle plant response rating (deadnettle; postemergence, 62 g ai/ha): 40
- Plant response rating, Deadnettle (deadnettle; [12]): 70
- Plant response rating, Deadnettle (deadnettle; [13]): 40

SMILES: Cc1cc(C(=O)NCC(F)(F)F)nn1Cc1ccnc(C(F)(F)F)c1 [Compound 74]
- Plant response rating (scale of 0 to 100), Kochia (kochia): 98
- Kochia plant response rating (kochia; [10]): 98
- Plant response rating, Kochia (kochia; 13 to 15 days): 98
- Kochia plant response rating (kochia; [11]): 98
- Deadnettle plant response rating (deadnettle; Postemergence, 31 g ai/ha): 10
- Deadnettle plant response rating (deadnettle; postemergence, 62 g ai/ha): 60
- Plant response rating, Deadnettle (deadnettle; [12]): 80
- Plant response rating, Deadnettle (deadnettle; [13]): 70
